Measured values from ChEMBL document CHEMBL1201862, “PubChem BioAssay data set” (2004).
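Growth conditions: 96-well plates. Treatment: test compound, 48 hours, 5 concentrations. Analysis: linear interpolation between bracketing concentrations; unreached endpoints set to highest concentration. GI50: concentration for 50% inhibition of growth.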 Activity calls are given as the source filed them. No stated cut-off is given here; in the data, active = GI50 up to about 1.1 µM and inactive = higher.

Key:
Assay in all cases: inhibition of tumour cell growth, NCI panel, 48 h
OVCAR-5 = system: OVCAR-5
SR = system: SR
HCT-15 = system: HCT-15
RPMI-8226 = system: RPMI-8226
ACHN = system: ACHN
SF-539 = system: SF-539
HOP-62 = system: HOP-62
NCI-H23 = system: NCI-H23
786-0 = system: 786-0
SF-295 = system: SF-295
NCI-H522 = system: NCI-H522
SW-620 = system: SW-620
NCI-H226 = system: NCI-H226
HCT-116 = system: HCT-116
NCI-H460 = system: NCI-H460
U-251 = system: U-251
OVCAR-3 = system: OVCAR-3
LOX IMVI = system: LOX IMVI

Row | SMILES | GI50 (OVCAR-5) | GI50 (SR) | GI50 (HCT-15) [µM] | GI50 (RPMI-8226) | GI50 (ACHN) | GI50 (SF-539) | GI50 (HOP-62) | GI50 (NCI-H23) | GI50 (786-0) | GI50 (SF-295) | GI50 (NCI-H522) | GI50 (SW-620) | GI50 (NCI-H226) | GI50 (HCT-116) | GI50 (NCI-H460) | GI50 (U-251) | GI50 (OVCAR-3) | GI50 (LOX IMVI)
1 | C[n+]1c2ccccc2c(NC(CCC(N)=O)C(=O)O)c2ccccc21 (stereo unspecified) | > 100 µM (inactive) | > 100 µM (inactive) | > 100 | 21 µM (inactive) | > 100 µM (inactive) | > 100 µM (inactive) | > 100 µM (inactive) | > 100 µM (inactive) | > 100 µM (inactive) | > 100 µM (inactive) | > 100 µM (inactive) | > 100 µM (inactive) | > 100 µM (inactive) | > 100 µM (inactive) | > 100 µM (inactive) | > 100 µM (inactive) | > 100 µM (inactive) | 
2 | CCOC(=O)Cn1c2ccccc2c(=O)c2cc(C)c(C)c(C#N)c21 | > 100 µM (inactive) | > 100 µM (inactive) | > 100 | > 100 µM (inactive) | > 100 µM (inactive) | > 100 µM (inactive) | 40.7 µM (inactive) | > 100 µM (inactive) | > 100 µM (inactive) | 40.4 µM (inactive) |  | > 100 µM (inactive) | > 100 µM (inactive) | 53.5 µM (inactive) | > 100 µM (inactive) | > 100 µM (inactive) | > 100 µM (inactive) | > 100 µM (inactive)
3 | Clc1cc(Cl)c2c(Cl)cc(Cl)c3c2c1N=S=N3 | > 100 µM (inactive) |  | 67.1 | > 100 µM (inactive) |  | > 100 µM (inactive) |  | > 100 µM (inactive) | > 100 µM (inactive) | > 100 µM (inactive) | > 100 µM (inactive) | > 100 µM (inactive) | > 100 µM (inactive) | > 100 µM (inactive) |  | > 100 µM (inactive) | > 100 µM (inactive) | > 100 µM (inactive)
4 | O=C(Nc1ccccc1Cl)c1ccc([N+](=O)[O-])cc1 |  |  | > 100 | > 100 µM (inactive) |  | 64.3 µM (inactive) | 47.4 µM (inactive) | > 100 µM (inactive) | 45.7 µM (inactive) | 46.7 µM (inactive) | > 100 µM (inactive) | > 100 µM (inactive) | > 100 µM (inactive) |  | > 100 µM (inactive) | > 100 µM (inactive) | > 100 µM (inactive) | > 100 µM (inactive)
5 | COc1ccc(-c2oc3cc(O)c(OC)c(O)c3c(=O)c2OC2OC(CO)C(O)C(O)C2O)cc1 (stereo unspecified) |  |  | > 100 | 21.2 µM (inactive) | 91.2 µM (inactive) | > 100 µM (inactive) |  | > 100 µM (inactive) | > 100 µM (inactive) | > 100 µM (inactive) |  | > 100 µM (inactive) |  | > 100 µM (inactive) | 43.3 µM (inactive) | > 100 µM (inactive) | > 100 µM (inactive) | > 100 µM (inactive)
6 | CC1=C(C)CC2(CCCCC2=O)[S+]([O-])C1 (stereo unspecified) | > 100 µM (inactive) | > 100 µM (inactive) | > 100 | > 100 µM (inactive) | > 100 µM (inactive) | > 100 µM (inactive) | > 100 µM (inactive) | > 100 µM (inactive) | > 100 µM (inactive) | > 100 µM (inactive) |  | > 100 µM (inactive) | > 100 µM (inactive) | > 100 µM (inactive) | > 100 µM (inactive) | > 100 µM (inactive) | > 100 µM (inactive) | > 100 µM (inactive)
7 | CS/C(c1ccccc1)=[N+](/C)[O-] | > 100 µM (inactive) | 24.2 µM (inactive) | 18.1 | > 56.2 µM (inactive) | > 100 µM (inactive) | > 100 µM (inactive) | > 100 µM (inactive) | > 100 µM (inactive) | > 100 µM (inactive) | > 100 µM (inactive) | > 100 µM (inactive) | > 100 µM (inactive) |  | > 80 µM (inactive) | > 52.2 µM (inactive) | > 100 µM (inactive) | > 100 µM (inactive) | > 43.3 µM (inactive)
8 | C[Si](C)(C)/C(Br)=C\CCN1C(=O)CCC1O (stereo unspecified) | > 100 µM (inactive) |  | > 100 | > 100 µM (inactive) | > 100 µM (inactive) | > 100 µM (inactive) |  | > 100 µM (inactive) | > 100 µM (inactive) | > 100 µM (inactive) | 71.9 µM (inactive) | > 100 µM (inactive) | > 100 µM (inactive) | > 100 µM (inactive) | > 100 µM (inactive) | > 100 µM (inactive) | > 100 µM (inactive) | > 100 µM (inactive)
9 | CCOC(=O)N1C2C=C(C)C(C3C(C)C(=O)N31)N(C(=O)c1ccccc1)O2 (stereo unspecified) | > 100 µM (inactive) | > 100 µM (inactive) | > 100 | > 100 µM (inactive) | > 100 µM (inactive) | > 100 µM (inactive) | > 100 µM (inactive) | > 100 µM (inactive) | > 100 µM (inactive) | > 100 µM (inactive) |  | > 100 µM (inactive) | > 100 µM (inactive) | > 100 µM (inactive) | > 100 µM (inactive) | > 100 µM (inactive) | > 100 µM (inactive) | > 100 µM (inactive)
10 | C/C(CC(=O)Nc1ccc(NC(=O)/C(C)=N/NS(=O)(=O)c2ccc(C)cc2)cc1)=N\NS(=O)(=O)c1ccc(C)cc1 | > 100 µM (inactive) |  | > 100 | > 100 µM (inactive) | > 100 µM (inactive) | > 100 µM (inactive) | > 100 µM (inactive) | > 100 µM (inactive) | > 100 µM (inactive) | > 100 µM (inactive) |  | > 100 µM (inactive) | > 100 µM (inactive) | > 100 µM (inactive) | > 100 µM (inactive) | > 100 µM (inactive) | > 100 µM (inactive) | > 100 µM (inactive)
11 | CCc1cc2c(O)c(c1)Cc1cc(CC)cc(c1O)Cc1cc(CC)cc(c1O)Cc1cc(CC)cc(c1O)Cc1cc(CC)cc(c1O)Cc1cc(CC)cc(c1O)Cc1cc(CC)cc(c1O)C2 | > 100 µM (inactive) |  | > 100 | > 100 µM (inactive) | > 100 µM (inactive) | > 100 µM (inactive) | > 100 µM (inactive) | > 100 µM (inactive) | > 100 µM (inactive) | > 100 µM (inactive) | > 100 µM (inactive) | > 100 µM (inactive) |  | > 100 µM (inactive) | > 100 µM (inactive) | 62.8 µM (inactive) | > 100 µM (inactive) | 
12 | NC(CNc1ccc(O)cc1)C(=O)O (stereo unspecified) | > 100 µM (inactive) | 87.9 µM (inactive) | > 100 | > 100 µM (inactive) | 57.8 µM (inactive) |  | > 100 µM (inactive) |  | 16 µM (inactive) | > 100 µM (inactive) | > 100 µM (inactive) | > 100 µM (inactive) | > 100 µM (inactive) | > 100 µM (inactive) | > 100 µM (inactive) | > 100 µM (inactive) | > 100 µM (inactive) | 60.8 µM (inactive)
13 | COC(=O)Cc1nc2ccccc2o1 | 45.2 µM (inactive) | > 100 µM (inactive) | 33.3 | 17.8 µM (inactive) | 41.7 µM (inactive) | 72.3 µM (inactive) | > 100 µM (inactive) | > 100 µM (inactive) | > 100 µM (inactive) | 41.1 µM (inactive) | 40.1 µM (inactive) | 95.1 µM (inactive) | > 100 µM (inactive) | 91.2 µM (inactive) | 80.5 µM (inactive) | 83.8 µM (inactive) | 69 µM (inactive) | 
14 | CCc1nc2c([nH]1)C(=O)c1ccccc1C2=O | > 100 µM (inactive) | 38.5 µM (inactive) | 51.3 |  | 59.8 µM (inactive) | 48.9 µM (inactive) | > 100 µM (inactive) | 29 µM (inactive) | 61.4 µM (inactive) | 45.7 µM (inactive) | 33.5 µM (inactive) | 43.4 µM (inactive) | 34 µM (inactive) | 27.2 µM (inactive) | 43 µM (inactive) | 55.5 µM (inactive) | 23 µM (inactive) | 
15 | CCCCCCCC(=O)OCC(C[As](=O)(O)O)OC(=O)CCCCCCC (stereo unspecified) |  | 16.6 µM (inactive) | 14.9 | 17.6 µM (inactive) | 16.9 µM (inactive) | 14.1 µM (inactive) | 20.3 µM (inactive) | 15.2 µM (inactive) | 17.2 µM (inactive) | 16.6 µM (inactive) | 13.3 µM (inactive) | 15.6 µM (inactive) | 22.3 µM (inactive) | 16.7 µM (inactive) |  | 15 µM (inactive) |  | 
16 | Cc1ccc(Nc2cccc3c2C(=O)c2cccc(Nc4ccc(C)cc4S(=O)(=O)O)c2C3=O)c(S(=O)(=O)O)c1 |  | > 100 µM (inactive) | > 100 | > 100 µM (inactive) | > 100 µM (inactive) | > 100 µM (inactive) | > 100 µM (inactive) |  | > 100 µM (inactive) |  | > 100 µM (inactive) | > 100 µM (inactive) | > 100 µM (inactive) | > 100 µM (inactive) | > 100 µM (inactive) | > 100 µM (inactive) | > 100 µM (inactive) | 
17 | CC1C=CC(O)[C@]2(CO)CC3(CCC12)OCCO3 (stereo partly specified) | > 100 µM (inactive) | > 100 µM (inactive) |  |  | > 100 µM (inactive) | > 100 µM (inactive) | > 100 µM (inactive) | > 100 µM (inactive) | > 100 µM (inactive) | > 100 µM (inactive) | > 100 µM (inactive) | > 100 µM (inactive) | > 100 µM (inactive) | > 100 µM (inactive) | > 100 µM (inactive) | > 100 µM (inactive) | > 100 µM (inactive) | 
18 | O=C(CC(=O)c1ccccc1)c1ccccc1.O=C(CC(=O)c1ccccc1)c1ccccc1.O=C(CC(=O)c1ccccc1)c1ccccc1.[SiH4] | 12.4 µM (inactive) | 3.57 µM (inactive) |  | 4.03 µM (inactive) | 3.63 µM (inactive) | 8.67 µM (inactive) | 7.59 µM (inactive) | 3.15 µM (inactive) | 7.74 µM (inactive) | 4.65 µM (inactive) | 2.26 µM (inactive) | 4.15 µM (inactive) | 8.87 µM (inactive) | 5.02 µM (inactive) |  | 2.86 µM (inactive) | 2.42 µM (inactive) | 3.1 µM (inactive)
